# Read-outs that look alike come from different tables or passages of the source. Non-standard residues stand in square brackets, D forms with d. No end group written: not given here.
# B1: PL-43 (SEQ ID NO: 24) (peptide)
# peptide: [dF][dK][dK][dF][dK][dK][dL][dL][dS][dK][dL][dW][dN][dW][dK]
# B2: PL-40 (SEQ ID NO: 18) (peptide)
# peptide: [dK][dL][dK][dK][dL][dF][dS][dK][dL][dW][dN][dW][dK]
# B3: PL-34 (SEQ ID NO: 6) (peptide)
# peptide: [dF][dK][dK][dL][dK][dK][dK][dF][dS][dK][dL][dW][dN][dW][dK]
# B4: PL-51 (SEQ ID NO: 30) (peptide)
# peptide: [dL][dF][dK][dK][dL][dK][dK][dL][dF][dS][dK][dL][dW][dN][dW][dK]
# B5: PL-18 (SEQ ID NO: 1) (peptide)
# peptide: Ac-[dF][dK][dK][dL][dK][dK][dL][dF][dS][dK][dL][dW][dN][dW][dK]-NH2
# SMILES: CC(=O)N[C@H](Cc1ccccc1)C(=O)N[C@H](CCCCN)C(=O)N[C@H](CCCCN)C(=O)N[C@H](CC(C)C)C(=O)N[C@H](CCCCN)C(=O)N[C@H](CCCCN)C(=O)N[C@H](CC(C)C)C(=O)N[C@H](Cc1ccccc1)C(=O)N[C@H](CO)C(=O)N[C@H](CCCCN)C(=O)N[C@H](CC(C)C)C(=O)N[C@H](Cc1c[nH]c2ccccc12)C(=O)N[C@H](CC(N)=O)C(=O)N[C@H](Cc1c[nH]c2ccccc12)C(=O)N[C@H](CCCCN)C(N)=O
# Columns and labels:
# candida krusei = assay: microbe, parasite or virus in culture; type: cell-based
# From the text: • (1) Test strains: monilia albicans (candida albicans), candida glabrata, candida krusei, candida tropicalis, aspergillus fumigatus and flavous. (2) Quality control strains: candida krusei JLC30366 (ATCC6258). Antimicrobial peptides PL-13 (SEQ ID NO: 1) under test are supplied by Jiangsu ProteLight Pharmaceutical & Biotechnology Co., LTD. […] (1) The bacterial strains which preserved on PDA slant are respectively inoculated onto PDA plate and slant medium. Activation of bacterial strains is conducted at a humidity level of 60% and 25° C. (for aspergillus) or 37° C. (for candida). (2) 0.9% stroke-physiological saline solution comprising 0.5% Tween-80 is used to prepare bacterial suspension for experiment. Hemocytometer is utilized to adjust concentration of the bacterial suspension to 1-3×10^6 CFU/ml (0.5 McFarland units) to make stock solution in reserve at -20° C. During the sensitivity test, the RPMI-1640 liquid medium is diluted 1000 times to 1-3×10^3 CFU/ml. (3) The RPMI-1640 liquid is utilized as diluent to 10-fold dilute stock solution of peptides. […] The eleventh orifice is used as living control orifice, while the twelfth one as blank control. (4) The RPMI-1640 liquid is utilized as diluent to 10-fold dilute stock solution of FCZ and ICZ. […] Ditto for other operations.
# aspergillus flavous = assay: microbe, parasite or virus in culture; type: cell-based
# Protocol: (§1) • (1) Test strains: monilia albicans (candida albicans), candida glabrata, candida krusei, candida tropicalis, aspergillus fumigatus and flavous. Antimicrobial peptides PL-13 (SEQ ID NO: 1) under test are supplied by Jiangsu ProteLight Pharmaceutical & Biotechnology Co., LTD. […] Activation of bacterial strains is conducted at a humidity level of 60% and 25° C. (for aspergillus) or 37° C. (for candida). (2) 0.9% stroke-physiological saline solution comprising 0.5% Tween-80 is used to prepare bacterial suspension for experiment. Hemocytometer is utilized to adjust concentration of the bacterial suspension to 1-3×10^6 CFU/ml (0.5 McFarland units) to make stock solution in reserve at -20° C. During the sensitivity test, the RPMI-1640 liquid medium is diluted 1000 times to 1-3×10^3 CFU/ml. (3) The RPMI-1640 liquid is utilized as diluent to 10-fold dilute stock solution of peptides. […] The eleventh orifice is used as living control orifice, while the twelfth one as blank control. (4) The RPMI-1640 liquid is utilized as diluent to 10-fold dilute stock solution of FCZ and ICZ. […] Ditto for other operations.
# aspergillus fumigatus = assay: microbe, parasite or virus in culture; type: cell-based
# Protocol: as §1
# [1] = test system: Acinetobacter calcoaceticus; assay: microbe, parasite or virus in culture; type: cell-based
# Protocol: (§2) The experimental strains are 37 standard strains preserved in lab and clinical isolated bacteria, including drug-resistant bacteria and quality-control bacteria selecting Staphylococcus aureus ATCC29213, Enterococcus faecalis ATCC29212, Escherichia coli ATCC25922, Pseudomonas aeruginosa ATCC27853 and klebsiella pneumoniae ATCC700603.
# (§3) (1) Sensitivity test is conducted with two-fold agar dilution method and Denlay multipoint inoculator. Test bacteria are cultured with nutrient broth and brain heart infusion.
# (§4) (2) The drug is double diluted into different concentration with MH broth after dissolved and then placed in the plate respectively.
# (§5) (3) After dissolved, MH agar culture medium are injected into the plate with drug quantitatively and mixed to make the final concentration of drug are 0.03, 0.06, 0.125, . . . , 128 μg/ml respectively.
# (§6) (4) After solidification of the culture medium in the plate, test bacteria (10^4CFU/point) are inoculated by multipoint inoculator and cultured for 18 hours at constant 35° C. Then observe the results.
# Enterobacter aerogenes = assay: microbe, parasite or virus in culture; type: cell-based
# Protocol: as §2, §3, §4, §5, §6
# Enterobacter cloacae = assay: microbe, parasite or virus in culture; type: cell-based
# Protocol: as §2, §3, §4, §5, §6
# Escherichia coli = assay: microbe, parasite or virus in culture; type: cell-based; settings: 08-5 (ESBLs) Extended Spectyumβ-lactamase
# Protocol: as §2, §3, §4, §5, §6
# Feilaoti citrobacter = assay: microbe, parasite or virus in culture; type: cell-based
# Protocol: as §2, §3, §4, §5, §6
# Proteus vulgaris = assay: microbe, parasite or virus in culture; type: cell-based
# Protocol: as §2, §3, §4, §5, §6
# Salmonella typhimurium = assay: microbe, parasite or virus in culture; type: cell-based; settings: murium
# Protocol: as §2, §3, §4, §5, §6
# Serratia marcescens = assay: microbe, parasite or virus in culture; type: cell-based
# Protocol: as §2, §3, §4, §5, §6
# Shigella flexneri = assay: microbe, parasite or virus in culture; type: cell-based
# Protocol: as §2, §3, §4, §5, §6
# Shigella sonnei = assay: microbe, parasite or virus in culture; type: cell-based; settings: Shigella sonnei strains 51592
# Protocol: as §2, §3, §4, §5, §6
# Shigella = assay: microbe, parasite or virus in culture; type: cell-based
# Protocol: as §2, §3, §4, §5, §6
# Staphylococcus aureus = assay: microbe, parasite or virus in culture; type: cell-based
# Protocol: as §2, §3, §4, §5, §6
# [2] = test system: Staphylococcus epidermidis; assay: microbe, parasite or virus in culture; type: cell-based
# Protocol: as §2, §3, §4, §5, §6
# Typhoid bacillus H901 = assay: microbe, parasite or virus in culture; type: cell-based
# Protocol: as §2, §3, §4, §5, §6
# [3] = test system: red cell suspension from healthy volunteers; assay: Hemolytic activity test; type: cell-based, human; settings: for Hemolytic activity, absorbancy (OD value) at 570 nm: 4 hours at 37° C., OD higher than 0.1 is hemolytic, n = 3
# Protocol: (1) Samples are serial diluted with sterile PBS to 1000, 500, 250, 125, 64, 32, 16, 8, 4 μg/ml in turn and spread in 96-well plates, 100 μl per orifice.
# (2) We use distilled water as positive control, sterile PBS as negative control and blank orifice with 200 μl PBS solution added. Each concentration above is made in triplicate.
# (3) We take 3 ml whole blood from healthy volunteers and washed it with sterile PBS three times to prepare fresh 2% concentration red cell suspension. Then we added 100 μl red cell suspension into each orifice and made them cultured for 4 hours at 37° C. in the incubator. After centrifuged by plate-swashing centrifuge, the supernatant liquid is collected and measured absorbancy (OD value) at a wavelength of 570 nm. Then we compared the hemolytic efficiency of these concentrations.
# (4) According to the documents standard, OD value which is higher than 0.1 is hemolytic concentration.
# PL-43 (SEQ ID NO: 24) = assay: RP-HPLC temperature profiling 5-80 C, normalised to random coil peptide C; self-association of the peptide with itself
# PL-40 (SEQ ID NO: 18) = assay: as above
# PL-34 (SEQ ID NO: 6) = assay: as above
# PL-51 (SEQ ID NO: 30) = assay: as above
# PL-18 (SEQ ID NO: 1) = assay: as above
molecule,measurement,setting,value
Ac-FKKLKKLFSKLLNLK-NH2 [PL-26],Minimal inhibitory concentration,candida krusei,8 µg/mL
same,Minimal inhibitory concentration,aspergillus flavous,>64 µg/mL
same,Minimal inhibitory concentration,aspergillus fumigatus,32 µg/mL
same,MIC,[1],6.7 µM
same,MIC,Enterobacter aerogenes,1.3 µM
same,MIC,Enterobacter cloacae,1.7 µM
same,MIC,Escherichia coli,1.3 µM
same,MIC,Feilaoti citrobacter,2.7 µM
same,MIC,Proteus vulgaris,6.7 µM
same,MIC,Salmonella typhimurium,5.3 µM
same,MIC,Serratia marcescens,0.02 µM
same,MIC,Shigella flexneri,1.3 µM
same,MIC,Shigella sonnei,1.3 µM
same,MIC,Shigella,0.3 µM
same,MIC,Staphylococcus aureus; 08-49(MSSA) Meticillin susceptible staphylococcus aureus,1.3 µM
same,MIC,Staphylococcus aureus; 08-52(MRSA) Methicillin-resistant staphylococcus aureus,1.3 µM
same,MIC,Staphylococcus aureus; Staphylococcus aureus ATCC25923,1.3 µM
same,MIC,Staphylococcus aureus; Staphylococcus aureus ATCC29213,1.3 µM
same,MIC,Staphylococcus aureus; strain 15 (listed under Staphylococcus aureus),1.3 µM
same,MIC,[2],0.7 µM
same,MIC,[2]; 08-17 (MSSE) Meticillin susceptible staphylococcus epidermidis,2.7 µM
same,MIC,[2]; 08-18 (MRSE) Methicillin-resistant staphylococcus epidermidis,2.7 µM
same,MIC,Typhoid bacillus H901,2.7 µM
same,"Hemolytic activity, absorbancy (OD value) at 570 nm",[3]; peptide 7.8125 μg/ml,0.020
same,"Hemolytic activity, absorbancy (OD value) at 570 nm",[3]; peptide 15.625 μg/ml,0.047
same,"Hemolytic activity, absorbancy (OD value) at 570 nm",[3]; peptide 31.25 μg/ml,0.057
same,"Hemolytic activity, absorbancy (OD value) at 570 nm",[3]; peptide 62.5 μg/ml,0.068
same,"Hemolytic activity, absorbancy (OD value) at 570 nm",[3]; peptide 125 μg/ml,0.075
same,"Hemolytic activity, absorbancy (OD value) at 570 nm",[3]; peptide 250 μg/ml,0.089
same,"Hemolytic activity, absorbancy (OD value) at 570 nm",[3]; peptide 500 μg/ml,0.121
same,"Hemolytic activity, absorbancy (OD value) at 570 nm",[3]; peptide 1000 μg/ml,0.327
same,hemolytic toxicity (in words),[3]; summary of Table 9,little hemolytic toxicity
B1,PA (self-association parameter),PL-43 (SEQ ID NO: 24),1.65 min
B2,PA (self-association parameter),PL-40 (SEQ ID NO: 18),0.55 min
B3,PA (self-association parameter),PL-34 (SEQ ID NO: 6),0.81 min
B4,PA (self-association parameter),PL-51 (SEQ ID NO: 30),1.63 min
B5,PA (self-association parameter),PL-18 (SEQ ID NO: 1),0.56 min

# From patent US9273095B2, “Antibiotic peptide and preparation method therefor and application therefor” (priority 2011, dated 2016)
